The values below come from patent US12533327B2, “Hexylamine salts and methods of using hexylamine” (priority 2019, dated 2026).

Series [1] concerns human subjects. The series is classed as in vivo. The protocol:
Five human subjects were given 100-600 mg hexylamine succinate each day over a period of a month or four weeks (see Table 1).
Over the course of the treatment period, two of the subjects who ingested hexylamine daily experienced a weight loss of 3 pounds without making any changes to their diet or exercise regimen. With the administration of 600 mg hexylamine succinate (equaling 276 mg of hexylamine base), the subjects' body temperature would rise by about 0.5° C.
None of the subjects experienced any of the toxic side effects described for too much exposure hexylamine, which include, burning sensation, abdominal pain, shock, or collapse. However, the effectiveness would diminish with doses less than 100 mg.

Series [2] can be described thus: Pharmacotechnical properties of synthesized hexylamine salts (state, hygroscopicity, solubility, dissolution, stability).
The nature of series [3]: Shelf life comparison, salts left exposed to air for a month. The series is classed as physicochemical. From the text:
FIG. 1 depicts a comparison of hexylamine succinate and hexylamine tartrate after being left exposed to air for a period of a month.
Hexylamine succinate and hexylamine tartrate were left exposed for a period of a month.

A short description of series [4]: Storage of hexylamine succinate in the atmosphere, water gain. The class given is physicochemical. The note with it: over one week of storage. Here is the method:
Hexylamine succinate (structure shown in Formula II) was effectively synthesized by pouring an equimolar amount of hexylamine into succinic acid powder while continuously stirring in an ice bath so that the temperature of the salt solution would be […].

In the next series the test system is human subject. As to the kind of experiment: Human tolerance of hexylamine succinate. The class given is in vivo. The note with it: one subject, 250 lbs, daily dose increased from 100 mg. Here is the method: A human subject (250 lbs) was administered a single 100 mg hexylamine succinate, and their tolerance to the salt was record. The daily dose was increased increased daily to determine the highest daily dose that could be tolerance by the subject. At a daily dose of 800 mg and higher, the subject reported side effects such as feelings of discomfort.

Series [5] concerns human subjects. Description: Iowa trail making test. The class given is in vivo. The note with it: 1000 mg tri-hexylamine citrate oral vs placebo. From the text: The Iowa trail making test assesses visual attention and task switching. In map A, the subject is to draw lines to connect circled numbers in a numerical sequence (1-2-3- . . . ) as rapidly in possible. In map B, the subject is to draw lines to connect circled numbers and letters in an alternating numeric and alphabetic sequence (1-A-2-B- . . . ) as rapidly as possible. Accordingly, map A assesses cognitive processing speed, while map B asses executive function. If the subject makes an error, it was immediately pointed it out and the subject was allowed correct it. Accordingly, errors affect the score only in that the correction of errors is included in the completion time for the task. […] Thus, hexylamine administration improves executive function.

In series [6] the test system is human subjects.
The conditions of series [7]: standard temperature and pressure; cited from earlier work.
A further series relates to human. The note with it: cited from earlier work.
The conditions of series [8]: cited from earlier work.
Series [9] in a line: Physiological effects of propylamine and amylamine. The class given is in vivo. To be noted: doses starting at 300 mg. From the text: Propylamine, […], a close chemical entity to hexylamine, has been used in the distant past as a sedative at doses of 2-10 grams (Page 892 of The Standard Medical Directory of North America 1902, GP Engelhard and Company, Chicago). […] Accordingly, compound having similar structure to hexylamine were expected to reduce alertness and cognitive function due to their sedative effects (from de facto slowdown of brain activity).

Series [10] has as its system human subjects. As to the kind of experiment: Administration of […] and caffeine, caffeine side effects. To be noted: same subjects, 300 mg caffeine alone.
The nature of series [11]: Citrate salts left exposed to air for one day. The series is classed as physicochemical. From the text:
FIG. 2 depicts a comparison of monohexylamine citrate and tri-hexylamine citrate after being left exposure to air for one day.

Series [12] can be described thus: Organoleptic properties and contact irritation of hexylamine and its salts.
Series [13] deals with human subjects. As to the kind of experiment: Effect of tri-hexylamine citrate on physical performance. The note with it: four subjects, 1000 mg 30 minutes before exercise. The series is classed as in vivo. The protocol: Four human subjects ingested 1000 mg tri-hexylamine citrate 30 minutes before performing their regular exercise.
In series [14] the test system is human subjects. As to the kind of experiment: Psychomotor vigilance test via sleep-2-Peak mobile application. The series is classed as in vivo. The note with it: 1000 mg oral vs placebo, p=0.0015. From the text:
Statistically significant results were obtained from the cognitive function tests.

The nature of series [15]: Time course of tri-hexylamine citrate in water. The series is classed as physicochemical. To be noted: one gram scattered over 100 ml water at room temperature. Here is the method:
FIG. 3 depicts a time course of tri-hexylamine citrate in water. One gram of tri-hexylamine citrate was scattered over 100 ml water at room temperature (left). About one minute after, all of the tri-hexylamine citrate was dissolved (right).

Series [16] has as its system human subjects. As to the kind of experiment: Activity of hexylamine salt forms on human subjects. The series is classed as in vivo. The note with it: taken as a capsule, compared with other salts of hexylamine.
Setting [17] is: five subjects, 100-600 mg each day for a month.

Structures are written as SMILES. Where a name gives a salt, the structure may show the parent alone.

Consider `CCCCCCN.O=C(O)CCC(=O)O` [Hexylamine succinate], for which the “rise of body temperature” value in the series on human subjects [1] (600 mg hexylamine succinate (276 mg hexylamine base)) was “about 0.5 °C”. Besides, in the series with human subjects [1] (setting [17]), the appetite entry is “reduced appetite”, the athletic performance entry is on record as “increase in athletic performance”, the body temperature entry is “increased body temperature” and the endurance entry is “increase in endurance”. In addition, in the series on human subjects [1] (setting [17]), the fatigue entry is on record as “reduction of fatigue”; the heart rate entry is reported as “increase in heart rate”; the “increase in diastolic blood pressure, average” value is listed as 2 mm; the “increase in systolic blood pressure, average” value is 8 mm. Moreover, in the series with human subjects [1] (setting [17]), the memory recollection result is recorded as “improved memory recollection”, the mental acuity entry is “increased mental acuity”, the mood entry is listed as “improved mood” and the strength entry is given as “increase in strength”. The sweating result in the series on human subjects [1] (setting [17]) is listed as “increased sweating”. In addition, in series [2], the hygroscopicity entry is listed as “non-hydroscopic”; the solubility in water result was “good solubility and dissolution rate”. Also, the “state of the powder and moisture uptake” value in [3] was “remained a fine powder and gained little moisture”. For the same molecule, in series [4], the hygroscopicity entry was “non-hygroscopic” and the “water gained in the atmosphere” value is “less than 1%”. For the same molecule, in the series on human subject, the “daily dose at which side effects such as feelings of discomfort were reported” value is at least 800 mg.
For the molecule `CCCCCCN` [Hexylamine], the tolerability entry with human subjects [1] (five subjects, none had toxic side effects (burning sensation, abdominal pain, shock, collapse)) is “generally well-tolerated”. The “dose below which the effectiveness would diminish” value with human subjects [1] (human, in vivo) is “less than 100 mg”. In the series on human subjects [1] (two of the subjects, daily ingestion over the treatment period, no change of diet or exercise), this molecule returned a weight loss of 3 pounds. For the same molecule, the “average completion time, map A” value in the series on human subjects [5] (not statistically significant) is on record as “reduced the average time”. Moreover, the “change of average completion time, map B” value with human subjects [5] (p=0.0020) is -12.5 s. Further, the “discomfort or serious side effects” value in the series with human subjects [6] (twelve healthy subjects, 1000 mg oral, blinded crossover vs placebo) is “None of the subjects experienced any discomfort or any serious side effect”. The “solubility in organic solvents” value in series [7] was “soluble in almost all organic solvents”. Also, in the series with human (Phytochemical Dictionary, second edition), the toxicity label result is on record as “highly toxic in any quantity”. For the same molecule, in the series with human (administered to a human (Alles 1941)), the “blood pressure and other physiological effects” value is on record as “no change in blood pressure or any other physiological effect was observed”.
On to `CCCN` [Propylamine], for which, in series [8] (doses of 2-10 grams (Standard Medical Directory of North America 1902)), the physiological use result is listed as “sedative”.
Consider `CCCCCN` [amylamine, Amylamine], for which, in series [9], the body temperature result is on record as “a drop in body temperature” and the heart rate result is on record as “reduction in heart rate”. Also, the “cardiac function, heartbeat and body temperature” value in series [8] (King's American Dispensatory 1909) is “reduce cardiac function, reduce heartbeat, and reduce body temperature”.
With `Cn1c(=O)c2c(ncn2C)n(C)c1=O` [caffeine], the “jittery sensation or caffeine crash” value in the series with human subjects [10] is “experience at leas tone of these side effects”.
In the case of `CCCCCCN.O=C(O)C(O)C(O)C(=O)O` (stereo not shown) [hexylamine tartrate], the “state of the powder and moisture uptake” value in series [3] was “absorbed moisture from the atmosphere and suffered from extensive caking”.
Regarding `CCCCCCN.O=C(O)CC(O)(CC(=O)O)C(=O)O` [mono-hexylamine citrate], in series [11], the “state of the salt” value is reported as “hardened into a solid mass”. Moreover, in [2], the “dissolution rate in water” value is on record as “much slower dissolution rate in water” and the hygroscopicity result is on record as “very hygroscopic”.
Turning to `O=[N+]([O-])O` [nitrate], the “effect on contact with skin, tongue or mouth” value in series [12] is recorded as “very irritating on contact with the skin or mouth”.
As for `CCCCCCN` [tri-hexylamine citrate], in the series with human subjects [13], the “focus and energy, self-reported” value was “feeling more focused and energetic”; the “sense of fatigue during and after exercise” value is “reduced sense of fatigue”. Further, in the series on human subjects [13] (vs no supplement), the “repetitions on knee extensions and bench press” value was “greater number of repetitions”; the “time to exhaustion on the treadmill” value is on record as “longer time to exhaustion”. In addition, in the series on human subjects [14], the “change of average reaction time” value is -70.1 ms and the “reduction of average reaction time” value stood at 18%. In addition, in series [15], the “time until all was dissolved” value is on record as “About one”. Also, in the series with human subjects [16], the onset of effect result was “has a faster effect on human subjects”. The “state of the salt” value in series [11] is on record as “suffered from some caking”. For the same molecule, in the series on human subjects [6] (1000 mg oral vs placebo), the “diastolic pressure, group” value was “no significant difference”; the “heart rate, group” value is reported as “no significant difference”; the “systolic blood pressure, group” value is “no significant difference”. Further, in the series on human subjects [6] (1000 mg oral vs placebo, scale 1-10), the self-mood assessment test entry is “did not show any statistically significant results”. The blood pressure result with human subjects [6] (1000 mg oral vs placebo, up to 50 minutes after administration) is listed as “largely unaffected”. Besides, in series [2], the “dissolution rate in water” value is given as “dissolves faster than all other salts of hexylamine in water” and the “stability of the salt” value was “very stable salt”.
